Assay results taken from patent publication US12053459B2, “CDK2 inhibitors and methods of using the same” (Cedilla Therapeutics, Inc., priority 2021, dated 2024).

Legend:
CDK2/Cyclin E1(14-475) = CDK2/Cyclin E1(14-475) (Homo sapiens, UniProt P24941); assay: Caliper LabChip EZ Reader mobility shift assay, inhibition of CDK2/Cyclin E1 activity; type: biochemical; details: class symbols A-D
Summary of the method: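 CDK2/Cyclin E1(14-475) pre-incubated 30 min with compound and ATP, then reaction started with 5-FAM-QSPKKG-CONH2; final 2.5 nM enzyme, 100 μM ATP, 1.5 μM peptide, HEPES pH 7.5. Stopped with EDTA after 100 min; substrate/product conversion by capillary electrophoresis mobility shift, IC50 from four-parameter fit.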

Kuramochi cells = assay: BrdU cell proliferation assay (colorimetric ELISA), Kuramochi cells; type: cell-based; details: class symbols A-D
Summary of the method: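 Kuramochi cells (2,000/well, with Kuramochi RB^KO cells as a specificity control) were treated with a 4-point, 3-fold dilution series made from 10 mM compound stocks and left for 4 days at 37 °C. Proliferation was measured by 1 h BrdU labelling, then anti-BrdU peroxidase ELISA read at 450 nm. Signals were background-subtracted and normalized to DMSO wells.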

IC50 (CDK2/Cyclin E1(14-475))	SMILES	IC50 (Kuramochi cells)
0.5 to 5 µM	CNC(=O)[C@@H](CCCC(C)(C)C)NC(=O)C1CN(C(=O)Cc2c[nH]c3cc(Cl)ccc23)CC2CN(C(=O)c3ccc(OC(C)C)c(OC)c3)CC21 (stereo partly drawn) [I-95]	> 10 µM
0.5 to 5 µM	CNC(=O)[C@H](CCCC(C)C)NC(=O)C1CN(C(=O)Cc2c[nH]c3cc(Cl)ccc23)CC2CN(C(=O)c3ccc(OC(C)C)c(OC)c3)CC21 (stereo partly drawn) [I-97]	> 10 µM
0.5 to 5 µM	COc1cc(C(=O)N2CC3CN(C(=O)Cc4c[nH]c5cc(Cl)ccc45)CC(C(=O)N[C@@H](C)C(=O)NCCCc4ccccc4)C3C2)ccc1OC(C)C (stereo partly drawn) [I-98]	> 10 µM
0.5 to 5 µM	COc1cc(C(=O)N2CC3CN(C(=O)Cc4c[nH]c5cc(Cl)ccc45)CC(C(=O)NCC(=O)NCCCc4ccccc4)C3C2)ccc1OC(C)C (stereo not drawn) [I-99]	> 10 µM
0.5 to 5 µM	CNC(=O)[C@@H](NC(=O)C1CN(C(=O)Cc2c[nH]c3cc(Cl)ccc23)CC2CN(C(=O)c3ccc(OC(C)C)c(OC)c3)CC21)[C@@H](C)OCc1ccccc1 (stereo partly drawn) [I-102]	> 10 µM
0.5 to 5 µM	COc1cc(C(=O)N2CC3CN(C(=O)Cc4c[nH]c5cc(Cl)ccc45)CC(C(=O)N[C@@H](C)C(=O)N(C)CCCc4ccccc4)C3C2)ccc1OC(C)C (stereo partly drawn) [I-103]	> 10 µM
> 10 µM	CNC(=O)[C@@H](CCCC1CCC(C(F)(F)F)CC1)NC(=O)C1CN(C(=O)Cc2c[nH]c3cc(Cl)ccc23)CC2CN(C(=O)c3ccc(OC(C)C)c(OC)c3)CC21 (stereo partly drawn) [I-104]	> 10 µM
> 10 µM	CNC(=O)[C@H](NC(=O)C1CN(C(=O)Cc2c[nH]c3cc(Cl)ccc23)CC2CN(C(=O)c3ccc(OC(C)C)c(OC)c3)CC21)[C@H](C)OCc1ccccc1 (stereo partly drawn) [I-105]	> 10 µM
≤ 0.5 µM	CNC(=O)[C@@H](NC(=O)C1CN(C(=O)Cc2c[nH]c3cc(Cl)ccc23)CC2CN(C(=O)c3ccc(OC(C)C)c(OC)c3)CC21)[C@H](C)OCC1CCCCC1 (stereo partly drawn) [I-107]	0.5 to 5 µM
> 10 µM	CNC(=O)[C@H](NC(=O)C1CN(C(=O)Cc2c[nH]c3cc(Cl)ccc23)CC2CN(C(=O)c3ccc(OC(C)C)c(OC)c3)CC21)[C@@H](C)OCC1CCCCC1 (stereo partly drawn) [I-108]	> 10 µM
0.5 to 5 µM	COc1cc(C(=O)N2CC3CN(C(=O)Cc4c[nH]c5cc(Cl)ccc45)CC(C(=O)N[C@@H](CCCc4ccccc4)C(N)=O)C3C2)ccc1OC(C)C (stereo partly drawn) [I-109]	> 10 µM
5 to 10 µM	CNC(=O)[C@@H](CCCC1CCCCC1)NC(=O)C1CN(C(=O)Cc2c[nH]c3cc(Cl)ccc23)CC2CN(C(=O)c3ccc(OC(C)C)c(OC)c3)CC21 (stereo partly drawn) [I-112]	> 10 µM
0.5 to 5 µM	CNC(=O)[C@H](CCCC1CCCCC1)NC(=O)C1CN(C(=O)Cc2c[nH]c3cc(Cl)ccc23)CC2CN(C(=O)c3ccc(OC(C)C)c(OC)c3)CC21 (stereo partly drawn) [I-113]	> 10 µM
> 10 µM	CNC(=O)[C@@H](CCCC(C)C)NC(=O)C1CN(C(=O)Cc2c[nH]c3cc(Cl)ccc23)CC2CN(C(=O)c3ccc(OC(C)C)c(OC)c3)CC21 (stereo partly drawn) [I-114]	> 10 µM
5 to 10 µM	CNC(=O)[C@H](CCCc1ccc(O)cc1)NC(=O)C1CN(C(=O)Cc2c[nH]c3cc(Cl)ccc23)CC2CN(C(=O)c3ccc(OC(C)C)c(OC)c3)CC21 (stereo partly drawn) [I-115]	> 10 µM
> 10 µM	CNC(=O)[C@H](CCCC1CCC(O)CC1)NC(=O)C1CN(C(=O)Cc2c[nH]c3cc(Cl)ccc23)CC2CN(C(=O)c3ccc(OC(C)C)c(OC)c3)CC21 (stereo partly drawn) [I-116]	> 10 µM
0.5 to 5 µM	CNC(=O)[C@H](CCCc1cccnc1)NC(=O)C1CN(C(=O)Cc2c[nH]c3cc(Cl)ccc23)CC2CN(C(=O)c3ccc(OC(C)C)c(OC)c3)CC21 (stereo partly drawn) [I-126]	> 10 µM
0.5 to 5 µM	CNC(=O)[C@H](CCCc1ccccc1O)NC(=O)C1CN(C(=O)Cc2c[nH]c3cc(Cl)ccc23)CC2CN(C(=O)c3ccc(OC(C)C)c(OC)c3)CC21 (stereo partly drawn) [I-127]	> 10 µM
5 to 10 µM	CNC(=O)[C@H](CCCc1cccc(O)c1)NC(=O)C1CN(C(=O)Cc2c[nH]c3cc(Cl)ccc23)CC2CN(C(=O)c3ccc(OC(C)C)c(OC)c3)CC21 (stereo partly drawn) [I-128]	0.5 to 5 µM
> 10 µM	CNC(=O)[C@H](NC(=O)C1CN(C(=O)Cc2c[nH]c3cc(Cl)ccc23)CC2CN(C(=O)c3ccc(OC(C)C)c(OC)c3)CC21)[C@H](C)OCC1CCCCC1 (stereo partly drawn) [I-129]	> 10 µM
0.5 to 5 µM	CNC(=O)[C@H](CCCC1CCOCC1)NC(=O)C1CN(C(=O)Cc2c[nH]c3cc(Cl)ccc23)CC2CN(C(=O)c3ccc(OC(C)C)c(OC)c3)CC21 (stereo partly drawn) [I-130]	> 10 µM
5 to 10 µM	CNC(=O)[C@@H](CCCC1CCOCC1)NC(=O)C1CN(C(=O)Cc2c[nH]c3cc(Cl)ccc23)CC2CN(C(=O)c3ccc(OC(C)C)c(OC)c3)CC21 (stereo partly drawn) [I-131]	0.5 to 5 µM
0.5 to 5 µM	CNC(=O)[C@@H](CCCC1CCCC1)NC(=O)C1CN(C(=O)Cc2c[nH]c3cc(Cl)ccc23)CC2CN(C(=O)c3ccc(OC(C)C)c(OC)c3)CC21 (stereo partly drawn) [I-132]	> 10 µM

IC50 (CDK2/Cyclin E1(14-475))	SMILES	IC50 (Kuramochi cells)
0.5 to 5 µM	CNC(=O)[C@H](CCCc1ccc(C(F)(F)F)cc1)NC(=O)C1CN(C(=O)Cc2c[nH]c3cc(Cl)ccc23)CC2CN(C(=O)c3ccc(OC(C)C)c(OC)c3)CC21 (stereo partly drawn) [I-133]	> 10 µM
> 10 µM	CNC(=O)[C@@H](CCCc1ccc(C(F)(F)F)cc1)NC(=O)C1CN(C(=O)Cc2c[nH]c3cc(Cl)ccc23)CC2CN(C(=O)c3ccc(OC(C)C)c(OC)c3)CC21 (stereo partly drawn) [I-134]	> 10 µM
≤ 0.5 µM	CNC(=O)C(NC(=O)C1CN(C(=O)Cc2c[nH]c3cc(Cl)ccc23)CC2CN(C(=O)c3ccc(OC(C)C)c(OC)c3)CC21)[C@@H](C)OCC1CCCCC1 (stereo partly drawn) [I-135]	0.5 to 5 µM
0.5 to 5 µM	CNC(=O)[C@H](C/C=C/c1ccccc1)NC(=O)C1CN(C(=O)Cc2c[nH]c3cc(Cl)ccc23)CC2CN(C(=O)c3ccc(OC(C)C)c(OC)c3)CC21 (stereo partly drawn) [I-136]	> 10 µM
> 10 µM	CNC(=O)[C@H](CC#Cc1ccccc1)NC(=O)C1CN(C(=O)Cc2c[nH]c3cc(Cl)ccc23)CC2CN(C(=O)c3ccc(OC(C)C)c(OC)c3)CC21 (stereo partly drawn) [I-137]	> 10 µM
> 10 µM	CNC(=O)[C@H](CCCc1ccncc1)NC(=O)C1CN(C(=O)Cc2c[nH]c3cc(Cl)ccc23)CC2CN(C(=O)c3ccc(OC(C)C)c(OC)c3)CC21 (stereo partly drawn) [I-138]	> 10 µM
0.5 to 5 µM	CNC(=O)[C@H](CCCc1cccc2[nH]nnc12)NC(=O)C1CN(C(=O)Cc2c[nH]c3cc(Cl)ccc23)CC2CN(C(=O)c3ccc(OC(C)C)c(OC)c3)CC21 (stereo partly drawn) [I-139]	> 10 µM
0.5 to 5 µM	CNC(=O)[C@H](CCCC1CCCCCC1)NC(=O)C1CN(C(=O)Cc2c[nH]c3cc(Cl)ccc23)CC2CN(C(=O)c3ccc(OC(C)C)c(OC)c3)CC21 (stereo partly drawn) [I-140]	> 10 µM
> 10 µM	CNC(=O)[C@@H](CCCC1CCCCCC1)NC(=O)C1CN(C(=O)Cc2c[nH]c3cc(Cl)ccc23)CC2CN(C(=O)c3ccc(OC(C)C)c(OC)c3)CC21 (stereo partly drawn) [I-141]	5 to 10 µM
> 10 µM	CNC(=O)[C@@H](CCCC1CCC(O)CC1)NC(=O)C1CN(C(=O)Cc2c[nH]c3cc(Cl)ccc23)CC2CN(C(=O)c3ccc(OC(C)C)c(OC)c3)CC21 (stereo partly drawn) [I-142]	> 10 µM
> 10 µM	CNC(=O)[C@H](CCCc1ccc2[nH]nnc2c1)NC(=O)C1CN(C(=O)Cc2c[nH]c3cc(Cl)ccc23)CC2CN(C(=O)c3ccc(OC(C)C)c(OC)c3)CC21 (stereo partly drawn) [I-143]	> 10 µM
0.5 to 5 µM	CNC(=O)[C@H](CCCc1ccc(F)cc1)NC(=O)C1CN(C(=O)Cc2c[nH]c3cc(Cl)ccc23)CC2CN(C(=O)c3ccc(OC(C)C)c(OC)c3)CC21 (stereo partly drawn) [I-144]	> 10 µM
0.5 to 5 µM	COc1cc(C(=O)N2CC3CN(C(=O)Cc4c[nH]c5cc(Cl)ccc45)CC(C(=O)NC(CCCc4ccccc4)c4ncco4)C3C2)ccc1OC(C)C (stereo not drawn) [I-149]	> 10 µM
0.5 to 5 µM	COc1cc(C(=O)N2CC3CN(C(=O)Cc4c[nH]c5cc(Cl)ccc45)CC(C(=O)NC(CCCc4ccccc4)c4ccccn4)C3C2)ccc1OC(C)C (stereo not drawn) [I-150]	5 to 10 µM
≤ 0.5 µM	COc1cc(C(=O)N2CC3CN(C(=O)Cc4c[nH]c5cc(Cl)ccc45)CC(C(=O)NC(CCCc4ccccc4)c4ncccn4)C3C2)ccc1OC(C)C (stereo not drawn) [I-151]	0.5 to 5 µM
> 10 µM	CNC(=O)[C@H](CCCc1ccccc1)NC(=O)C1CN(C(=O)Cc2ccccc2)CC2CN(C(=O)c3ccc(OC(C)C)c(OC)c3)CC21 (stereo partly drawn) [I-154, 2-(4-isopropoxy-3-methoxybenzoyl)-N—((S)-1-(methylamino)-1-oxo-5-phenylpentan-2-yl)-5-(2-phenylacetyl)octahydro-1H-pyrrolo[3,4-c]pyridine-7-carboxamide]	> 10 µM
> 10 µM	CNC(=O)[C@H](CCCc1ccccc1)NC(=O)C1CN(C(=O)Cc2ccccn2)CC2CN(C(=O)c3ccc(OC(C)C)c(OC)c3)CC21 (stereo partly drawn) [I-155]	> 10 µM
0.5 to 5 µM	CNC(=O)[C@H](CCCc1ccccc1)NC(=O)C1CN(C(=O)Cn2cnc3cc(Cl)ccc32)CC2CN(C(=O)c3ccc(OC(C)C)c(OC)c3)CC21 (stereo partly drawn) [I-156]	> 10 µM
> 10 µM	CNC(=O)[C@H](CCCc1ccccc1)NC(=O)C1CN(C(=O)CCc2c[nH]c3ccccc23)CC2CN(C(=O)c3ccc(OC(C)C)c(OC)c3)CC21 (stereo partly drawn) [I-157]	> 10 µM
> 10 µM	CNC(=O)[C@H](CCCc1ccccc1)NC(=O)C1CN(C(=O)c2ccc3ncccc3c2)CC2CN(C(=O)c3ccc(OC(C)C)c(OC)c3)CC21 (stereo partly drawn) [I-158]	> 10 µM
> 10 µM	CNC(=O)[C@H](CCCc1ccccc1)NC(=O)C1CN(C(=O)c2cn(C)c3ccccc23)CC2CN(C(=O)c3ccc(OC(C)C)c(OC)c3)CC21 (stereo partly drawn) [I-159]	> 10 µM
> 10 µM	CNC(=O)[C@H](CCCc1ccccc1)NC(=O)C1CN(C(=O)c2cc3ccccc3cn2)CC2CN(C(=O)c3ccc(OC(C)C)c(OC)c3)CC21 (stereo partly drawn) [I-160]	> 10 µM
